Experimental data taken from ChEMBL document CHEMBL1158371, “Design, synthesis, and evaluation of biphenyl-4-yl-acrylohydroxamic acid derivatives as histone deacetylase (HDAC) inhibitors” (Eur J Med Chem, 2009).
Calls of active or inactive are those of the source. No cut-off for these calls is given here.

Legend:
IGROV-1 [1] = assay: Cell cycle arrest in cisplatin-resistant human IGROV1 cells assessed as partial accumulation at G2/M phase at IC80 using propidium-iodide staining by flow-cytometry; type: functional, cell-based
Histone deacetylase 2 = Histone deacetylase 2 (Homo sapiens, UniProt Q92769); assay: Inhibition of HDAC2 in human HeLa cells; type: cell-based
Sequence of Histone deacetylase 2 (Q92769 whole entry): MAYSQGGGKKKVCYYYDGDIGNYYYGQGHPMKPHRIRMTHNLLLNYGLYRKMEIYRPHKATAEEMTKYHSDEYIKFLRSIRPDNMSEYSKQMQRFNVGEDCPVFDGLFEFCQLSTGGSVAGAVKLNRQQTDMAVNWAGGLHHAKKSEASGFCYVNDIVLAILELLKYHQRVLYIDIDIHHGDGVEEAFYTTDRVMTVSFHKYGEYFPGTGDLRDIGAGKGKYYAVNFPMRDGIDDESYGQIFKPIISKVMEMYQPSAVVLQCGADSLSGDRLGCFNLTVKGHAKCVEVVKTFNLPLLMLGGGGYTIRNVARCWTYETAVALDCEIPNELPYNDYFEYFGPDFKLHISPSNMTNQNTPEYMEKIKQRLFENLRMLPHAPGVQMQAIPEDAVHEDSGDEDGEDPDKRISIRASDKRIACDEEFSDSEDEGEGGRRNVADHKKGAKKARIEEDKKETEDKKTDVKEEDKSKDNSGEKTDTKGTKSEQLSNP

IGROV-1 [2] = assay: Cell cycle arrest in human IGROV1 cells assessed as accumulation at sub-G1 phase at IC80 after 24 hrs using propidium-iodide staining by flow-cytometry; type: functional, cell-based
NB-4 = assay: Antiproliferative activity against human NB4 cells after 72 hrs; type: functional, cell-based; conditions: NB-4, 72 h
IGROV-1 [3] = assay: Antiproliferative activity against human IGROV1 cells after 72 hrs by cell counting; conditions: IGROV-1, 72 h
IGROV-1 [4] = assay: Antiproliferative activity against human IGROV1 cells after 72 hrs; type: functional, cell-based; conditions: IGROV-1, 72 h
IGROV-1 [5] = assay: Cell cycle arrest in cisplatin-resistant human IGROV1 cells assessed as partial accumulation at S phase at IC80 using propidium-iodide staining by flow-cytometry; type: functional, cell-based
IGROV-1 [6] = assay: Induction of apoptosis in human IGROV1 cells at IC80 after 72 hrs by TUNEL assay; type: functional
IGROV-1 [7] = assay: Antiproliferative activity against cisplatin-resistant human IGROV1 cells after 72 hrs; type: functional, cell-based; conditions: IGROV-1, 72 h
HCT-116 [8] = assay: Antiproliferative activity against human HCT116 cells after 72 hrs; type: functional, cell-based; conditions: HCT-116, 72 h
NCI-H460 = assay: Antiproliferative activity against human H460 cells after 72 hrs; type: functional, cell-based; conditions: NCI-H460, 72 h
IGROV-1 [9] = assay: Antitumor activity against human IGROV1 cells athymic nude Swiss mouse assessed as tumor volume inhibition at 20 mg/kg, po QD administered 5 days a week for 4 weeks; type: functional
Mus musculus [10] = assay: Toxicity in athymic nude Swiss mouse bearing human IGROV1 cells assessed as body weight loss at 40 mg/kg, po QD administered 5 days a week for 4 weeks; type: organism-based, IGROV-1; parameters: dose 40 mg/kg, route oral; conditions: in vivo
HCT-116 [11] = assay: Antitumor activity against human HCT116 cells athymic nude Swiss mouse assessed as tumor volume inhibition at 40 mg/kg, po QD administered 5 days a week for 4 weeks; type: functional
Mus musculus [12] = assay: Toxicity in athymic nude Swiss mouse bearing human IGROV1 cells assessed as body weight loss at 20 mg/kg, po QD administered 5 days a week for 4 weeks; type: organism-based, IGROV-1; parameters: dose 20 mg/kg, route oral; conditions: in vivo
IGROV-1 [13] = assay: Antitumor activity against human IGROV1 cells athymic nude Swiss mouse assessed as tumor volume inhibition at 40 mg/kg, po QD administered 5 days a week for 4 weeks; type: functional
Mus musculus [14] = assay: Toxicity in athymic nude Swiss mouse bearing human HCT116 cells assessed as body weight loss at 40 mg/kg, po QD administered 5 days a week for 4 weeks; type: organism-based, HCT-116; parameters: dose 40 mg/kg, route oral; conditions: in vivo
Mus musculus [15] = assay: Toxicity in athymic nude Swiss mouse bearing human HCT116 cells assessed as body weight loss at 100 mg/kg, po QD administered 5 days a week for 4 weeks; type: organism-based, HCT-116; parameters: dose 100 mg/kg, route oral; conditions: in vivo
IGROV-1 [16] = assay: Cell cycle arrest in cisplatin-resistant human IGROV1 cells assessed as partial accumulation at G2/M phase at IC90 using propidium-iodide staining by flow-cytometry; type: functional, cell-based
IGROV-1 [17] = assay: Cell cycle arrest in human IGROV1 cells assessed as accumulation at sub-G1 phase at IC90 after 24 hrs using propidium-iodide staining by flow-cytometry; type: functional, cell-based
IGROV-1 [18] = assay: Induction of apoptosis in human IGROV1 cells at IC90 after 72 hrs by TUNEL assay; type: functional
IGROV-1 [19] = assay: Cell cycle arrest in cisplatin-resistant human IGROV1 cells assessed as partial accumulation at S phase at IC90 using propidium-iodide staining by flow-cytometry; type: functional, cell-based

Row | SMILES | Activity (IGROV-1 [1]) | IC50 (Histone deacetylase 2) [µM] | Activity (IGROV-1 [2]) | IC50 (NB-4) [µM] | IC80 (IGROV-1 [3]) [µM] | IC50 (IGROV-1 [4]) [µM] | Activity (IGROV-1 [5]) | Activity (IGROV-1 [6]) [%] | IC50 (IGROV-1 [7]) [µM] | IC50 (HCT-116 [8]) [µM] | IC50 (NCI-H460) [µM] | also measured
1 | CN(C)c1ccc(-c2ccc(/C=C/C(=O)NO)cc2)cc1 | Active | > 5 | Active | 0.86 | 3 | 1.1 | Active | 89 | 3.5 | 0.7 |  | 
2 | O=C(/C=C/c1ccc(-c2ccc(O)c(Cl)c2)cc1)NO | Active | 0.46 | Active | 0.58 |  | 4.1 | Active |  | 3.9 | 1.46 | 3.1 | 
3 | O=C(/C=C/c1ccc(-c2ccc(O)cc2)cc1)NO |  |  |  | 2.3 | 20 | 7.6 |  | 40 | 6.5 | 0.33 | 6 | inhibition in vivo at 20 mg/kg (IGROV-1 [9]): 44%; Activity (Mus musculus [10]): 6%; inhibition in vivo at 40 mg/kg (HCT-116 [11]): 65%; Activity (Mus musculus [12]): 2%; inhibition in vivo at 40 mg/kg (IGROV-1 [13]): 49%; Activity (Mus musculus [14]): 8%
4 | O=C(CCC1CCC(c2ccc(O)cc2)CC1)NO (stereo not given) |  |  |  | 6.9 |  | 31.9 |  |  | 23.9 | 4.27 | 9.5 | 
5 | O=Cc1ccc(-c2ccc(/C=C/C(=O)NO)cc2)cc1 |  |  |  |  |  | 12.1 |  |  | 20.3 |  |  | 
6 | O=C(/C=C/c1cccc(-c2ccc(O)cc2)c1)NO |  | 0.32 |  | 2.85 |  | > 10 |  |  | > 10 | 1.64 | 5.6 | 
7 | O=C(CCCCc1ccc(-c2ccccc2)cc1)NO | Active | 0.72 | Active | 0.86 | 12 | 8 | Active | 65 | 9.1 | 2.7 | 4.7 | 
8 | O=C(/C=C/c1ccc(-c2ccccc2)cc1)NO |  | 0.82 |  | 0.9 |  | 3.5 |  |  | 4 | 1.58 | 5.4 | 
9 | O=C(CCCCCCC(=O)Nc1ccccc1)NO [VORINOSTAT] | Active |  | Active |  |  | 2.2 | Active | 15 | 2.2 | 0.31 |  | Activity (Mus musculus [15]): 4%; Activity (IGROV-1 [16]): Active; Activity (IGROV-1 [17]): Active; Activity (IGROV-1 [18]): 45%; Activity (IGROV-1 [19]): Active
10 | O=C(/C=C/c1ccc(-c2ccc3[nH]ccc3c2)cc1)NO |  | 1.2 |  | 6.5 |  | 22.1 |  |  | 29.3 |  | 14 | 
11 | N#Cc1ccc(-c2ccc(/C=C/C(=O)NO)cc2)cc1 | Active | 0.33 | Active |  | 10 | 2.7 | Active | 90 | 3.2 |  | 5.7 | inhibition in vivo at 20 mg/kg (IGROV-1 [9]): 37%; Activity (Mus musculus [12]): 0%
